Reference: patent US20250368629A1, “FLAVONOID COMPOUNDS AND METHODS AND MATERIALS FOR USING FLAVONOID COMPOUNDS TO TREAT FIBROTIC CONDITIONS” (Mayo Foundation for Medical Education and Research, priority 2022, published 2025)

Legend:
[1] = tested on: senescent human adult lung fibroblasts; experiment: Apoptosis of senescent lung fibroblasts (cleaved caspase-3, DAPI); assay type: cell-based; conditions: Fibroblast; replicatively senescent human adult lung fibroblasts, 96 hours, 6-point dose-response, N=3
Method: (§1) Human adult lung fibroblasts were replicatively passaged until senescence (confirmed by RNA and senescence associated beta galactosidase staining). In a parallel experiment, low passage proliferating fibroblasts from the same donor were compared. Cells were plated into 96-well plates and treated with the indicated compound (6-point dose-response) and incubated for 96 hours. Cells were then fixed using 4% PFA, permeabilized using 0.25% triton x-100, and nuclear stained using a primary antibody for cleaved caspase-3, secondary fluorescence conjugated antibody, and DAPI. Cells were then imaged using a 4× objective on a Cytation5 microscope and cell counts were quantified using automated software (Biotek Gen5). Data shown are the EC50 values calculated for each compounds efficacy to induce apoptosis in senescence vs. proliferating lung fibroblasts, from the calculated dose-response curves, N=3 independent experiments.

[2] = tested on: low passage proliferating fibroblasts; experiment: Apoptosis of low passage proliferating lung fibroblasts (cleaved caspase-3, DAPI); assay type: cell-based, human; conditions: low passage proliferating fibroblasts from the same donor, 96 hours, 6-point dose-response, N=3
Method: as §1

STK17A = target: T1, STK17A (Homo sapiens, UniProt Q9UEE5); experiment: Kinase dose response curve on STK17A; assay type: biochemical; conditions: FIG. 4A, read-out: half maximal inhibitory concentration (IC50) on STK17A
T1 construct: purchased Reaction Biology
T1 sequence (Q9UEE5 1-414): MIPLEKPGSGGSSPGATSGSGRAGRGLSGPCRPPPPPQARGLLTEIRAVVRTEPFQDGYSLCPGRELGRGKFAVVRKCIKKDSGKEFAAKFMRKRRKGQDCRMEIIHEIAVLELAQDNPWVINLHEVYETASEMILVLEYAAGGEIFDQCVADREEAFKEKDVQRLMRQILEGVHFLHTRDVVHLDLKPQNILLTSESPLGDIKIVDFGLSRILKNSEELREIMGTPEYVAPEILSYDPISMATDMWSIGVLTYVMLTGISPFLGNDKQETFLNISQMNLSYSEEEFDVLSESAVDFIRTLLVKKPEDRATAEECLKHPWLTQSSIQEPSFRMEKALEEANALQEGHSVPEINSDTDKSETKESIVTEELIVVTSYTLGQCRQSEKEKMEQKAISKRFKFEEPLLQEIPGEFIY
Method: FIGS. 4A-4B show mechanism of action of F-4N. […] Dose response curves on STK17A and STK17B show half maximal inhibitory concentration (IC50) values of ˜200 nM. […] FIG. 4A. F-4N was sent to Reaction Biology to be tested against their entire wild-type kinase panel. 1 μM F-4N was tested in an ATP competition assay against 420+ kinases. Z-scores were calculated to identify true hits over noise.

~400 kinases = experiment: Kinome screen (Reaction Biology wild-type kinase panel, ATP competition assay); assay type: biochemical; conditions: 1 μM, Z-scores
Method: FIG. 4A. F-4N was sent to Reaction Biology to be tested against their entire wild-type kinase panel. 1 μM F-4N was tested in an ATP competition assay against 420+ kinases. Z-scores were calculated to identify true hits over noise.
Kinome screening was used to test F-4N (1 μM) against ˜400 kinases.

[3] = Microsomal stability, mouse liver derived microsomes; assay type: in vitro ADME
Method: The microsomal stability of F-4N was also assessed (FIG. 28). Compounds were incubated with human or mouse liver derived microsomes. The percent of F-4N recovered was analyzed by LC-MS. Verapamil was used as a control for a rapidly degraded compound. Analysis was performed by Cyprotex (Framingham, MA).

[4] = tested on: mice with intratracheal bleomycin injury; experiment: Acute exposure bleomycin dose-finding study; assay type: in vivo, mouse
Method: On day 1 mice received intratracheal sham or bleomycin injury. On day 7 mice were divided into groups and treated daily with vehicle, 10, 30, or 100 mg/kg F-4N by oral gavage for 7 days. On day 14 organs and plasma were collected. Weight changes were measured throughout the experiment (FIG. 24B). Whole lung RNA expression of profibrotic genes as also examined (FIG. 24C). […] F-4N efficacy biomarkers were identified. RNA was collected from vehicle treated mice and from mice treated with 30 mg/kg F-4N. RNA was analyzed using the RT2 Profiler PCR array (Qiagen Catalog No.—330231) which measures expression of 89 different cytokines and chemokines. […] A level of genes whose expression is altered in response to F-4N can be used as a biomarker for F-4N efficacy.

[5] = tested on: sections of lung tissue from IPF patient transplant lungs; experiment: IPF patient-derived organotypic ex vivo culture; assay type: cell-based, human; conditions: 3 μM, 4 days ex vivo, N=3 patient samples
Method: An IPF patient-derived organotypic ex vivo culture was used to determine efficacy of F-4N. Sections of lung tissue (about […]) were cut from IPF patient transplant lungs and cultured for 4 days ex vivo with DMSO (0.1%) or F-4N (3 μM). Lung tissue slices were collected, RNA was isolated, and qPCR analysis was performed (FIG. 31). Media was also collected for ELISA analysis for IL-6 (FIG. 31B). N=3 patient samples.

[6] = 30 and 100 mg/kg daily oral gavage, 7 days

SMILES: O=c1c(O)c(-c2ccc(OCc3ccncc3)cc2)oc2ccccc12 [F—4N]
- EC50 [1]: 800 nM
- Proliferating fibroblast apoptosis EC50 [2]: inactive
- IC50 (STK17A): ~200 nM
- Putative targets identified by kinome screening (~400 kinases): STK17A (also known as DRAK1), STK17B (also known as DRAK2), and MYLK4, AURKB, FLT3, and KIT
- microsomal stability: half-life and clearance rate [3]: in line with many clinically approved orally administered drugs
- number of genes with reduced expression (RT2 Profiler PCR array of 89 cytokines and chemokines) ([4]; 30 mg/kg, after 7 days of treatment): 11 genes
- weight change [4, 6]: improved weight change
- whole lung RNA expression of profibrotic genes [4, 6]: reduced expression
- expression of fibrotic markers (qPCR) [5]: reduced expression
- expression of mature alveolar epithelial cell markers (qPCR) [5]: enhanced expression
